Experimental data as given in the supplement of paper PMC11061612.

Legend:
Assay in all cases: combination Emax (second highest fraction inhibited in the dose matrix, 72 h); higher = more inhibition; extreme values may be limits of the assay
DSH1 (Bladder Carcinoma) = tested on: DSH1 (Bladder Carcinoma)
How it was run: (§1)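 After 24 hours at 37°C and 5% CO2 in 1536-well plates, cells in DMEM/F12 or RPMI plus 10% FBS received two-drug dose matrices for 72 hours. Viability came from CellTiter-Glo 2.0 luminescence and was scaled as inhibition, anchored at 0 by vehicle wells and at 1 by blank wells. Combination Emax is taken as the second-highest inhibition in the matrix, and Bliss excess as the observed combination effect less EA + EB − EA·EB, with EA and EB the single-agent effects.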

[1] = tested on: EM-2 (Chronic Myelogenous Leukemia)
How it was run: as §1

J82 (Bladder Carcinoma) = tested on: J82 (Bladder Carcinoma)
How it was run: as §1

[2] = tested on: DB (B-Cell Non-Hodgkin's Lymphoma)
How it was run: as §1

[3] = tested on: HT-29 (Colorectal Carcinoma)
How it was run: as §1

CAL-78 (Chondrosarcoma) = tested on: CAL-78 (Chondrosarcoma)
How it was run: as §1

[4] = tested on: HCC2157 (Breast Carcinoma)
How it was run: as §1

[5] = tested on: LU-99A (Non-Small Cell Lung Carcinoma)
How it was run: as §1

[6] = tested on: SNU-C5 (Colorectal Carcinoma)
How it was run: as §1

RH-1 (Ewing's Sarcoma) = tested on: RH-1 (Ewing's Sarcoma)
How it was run: as §1

[7] = tested on: KM-H2 (Hodgkin's Lymphoma)
How it was run: as §1

[8] = tested on: KARPAS-620 (Plasma Cell Myeloma)
How it was run: as §1

[9] = tested on: CTV-1 (T-Lymphoblastic Leukemia)
How it was run: as §1

[10] = tested on: MDA-MB-231 (Breast Carcinoma)
How it was run: as §1

NCI-H2369 (Mesothelioma) = tested on: NCI-H2369 (Mesothelioma)
How it was run: as §1

[11] = tested on: U-266 (Plasma Cell Myeloma)
How it was run: as §1

[12] = tested on: SUIT-2 (Pancreatic Carcinoma)
How it was run: as §1

ES7 (Ewing's Sarcoma) = tested on: ES7 (Ewing's Sarcoma)
How it was run: as §1

[13] = tested on: CFPAC-1 (Pancreatic Carcinoma)
How it was run: as §1

[14] = tested on: COR-L23 (Non-Small Cell Lung Carcinoma)
How it was run: as §1

Row | SMILES | combination Emax (DSH1 (Bladder Carcinoma)) | combination Emax [1] | combination Emax (J82 (Bladder Carcinoma)) | combination Emax [2] | combination Emax [3] | combination Emax (CAL-78 (Chondrosarcoma)) | combination Emax [4] | combination Emax [5] | combination Emax [6] | combination Emax (RH-1 (Ewing's Sarcoma)) | combination Emax [7] | combination Emax [8] | combination Emax [9] | combination Emax [10] | combination Emax (NCI-H2369 (Mesothelioma)) | combination Emax [11] | combination Emax [12] | combination Emax (ES7 (Ewing's Sarcoma)) | combination Emax [13] | combination Emax [14]
1 | COc1cccc2c1C(=O)c1c(O)c3c(c(O)c1C2=O)C[C@@](O)(C(=O)CO)C[C@@H]3O[C@H]1C[C@H](N)[C@H](O)[C@H](C)O1 [Doxorubicin] + Cc1cc2ncnn2cc1Nc1ncc2c(n1)n(C1CCOCC1)c(=O)n2C [AZD7648] (first compound max 1 µM, 7x7, partner max 10 µM) | 0.86 | 0.978 | 0.41 | 0.896 | 0.657 | 0.542 | 0.925 | 0.751 | 0.724 | 1 | 0.791 | 0.681 | 1 | 0.786 | 0.883 | 0.612 | 0.646 | 1 | 0.586 | 0.432
2 | COc1cc2ncnc(Nc3ccc(F)c(Cl)c3)c2cc1OCCCN1CCOCC1 [Gefitinib] + CC(C)n1c(=O)n(C)c2cnc3cc(F)c(-c4ccc(OCCCN5CCCCC5)nc4)cc3c21 [AZD1390] (first compound max 10 µM, 7x7, partner max 0.3 µM) | 0.858 | 0.174 | 0.139 | 0.328 | 0.315 | 0.194 | 0.723 | 0.154 | 0.0876 | 0.188 | 0.19 | 0.141 | 0.785 | 0.193 | 0.0747 | 0.124 | 0.111 | 0.385 | 0.304 | 0.0639
3 | CS(=O)(=O)CCNCc1ccc(-c2ccc3ncnc(Nc4ccc(OCc5cccc(F)c5)c(Cl)c4)c3c2)o1 [Lapatinib] + C[C@@H](Oc1cc(-c2cnn(C3CCNCC3)c2)cnc1N)c1c(Cl)ccc(F)c1Cl [Crizotinib] (first compound max 10 µM, 7x7, partner max 10 µM) | 1 | 1 | 0.662 | 0.953 | 0.942 | 0.897 | 1 | 0.603 | 0.764 | 0.939 | 0.931 | 0.873 | 1 | 0.828 | 0.254 | 0.495 | 0.657 | 0.927 | 0.963 | 0.949
4 | CC(=O)c1c(C)c2cnc(Nc3ccc(N4CCNCC4)cn3)nc2n(C2CCCC2)c1=O [Palbociclib] + CC1(C)CCC(CN2CCN(c3ccc(C(=O)NS(=O)(=O)c4ccc(NCC5CCOCC5)c([N+](=O)[O-])c4)c(Oc4cnc5[nH]ccc5c4)c3)CC2)=C(c2ccc(Cl)cc2)C1 [Venetoclax] (first compound max 10 µM, 7x7, partner max 1 µM) | 0.439 | 0.287 | 0.237 | 0.962 | 0.399 | 0.278 | 0.601 | 0.319 | 0.468 | 0.277 | 0.383 | 0.842 | 0.921 | 0.408 | 0.139 | 0.35 | 0.0936 | 0.644 | 0.311 | 0.106
5 | CC(=O)c1c(C)c2cnc(Nc3ccc(N4CCNCC4)cn3)nc2n(C2CCCC2)c1=O [Palbociclib] + Cc1c2c(nn1C)CSCc1cc(n(C)n1)CSc1cc(c3ccccc3c1)OCCCc1c(C(=O)O)n(C)c3c-2c(Cl)ccc13 [AZD5991] (first compound max 10 µM, 7x7, partner max 1 µM) | 0.523 | 0.484 | 0.25 | 1 | 0.449 | 0.693 | 1 | 0.346 | 0.35 | 0.853 | 0.567 | 1 | 0.843 | 0.455 | 0.199 | 0.872 | 0.445 | 0.714 | 0.375 | 0.203
6 | CC(=O)c1c(C)c2cnc(Nc3ccc(N4CCNCC4)cn3)nc2n(C2CCCC2)c1=O [Palbociclib] + Cn1cnc2c(F)c(Nc3ccc(Br)cc3Cl)c(C(=O)NOCCO)cc21 [Selumetinib] (first compound max 10 µM, 7x7, partner max 10 µM) | 0.479 | 0.459 | 0.138 | 0.785 | 0.769 | 0.331 | 0.394 | 0.542 | 0.463 | 0.228 | 0.47 | 0.631 | 0.905 | 0.64 | 0.144 | 0.648 | 0.452 | 0.609 | 0.411 | 0.327
7 | COc1cccc(OCCCN)c1-c1cc(Nc2cnc(C#N)cn2)n[nH]1 [Prexasertib] + C=CCn1c(=O)c2cnc(Nc3ccc(N4CCN(C)CC4)cc3)nc2n1-c1cccc(C(C)(C)O)n1 [AZD1775] (first compound max 1 µM, partner max 1 µM) | 0.84 | 0.986 | 0.577 | 0.945 | 0.844 | 0.643 | 1 | 0.806 | 0.886 | 1 | 0.962 | 0.904 | 1 | 0.9 | 0.296 | 0.77 | 0.707 | 0.966 | 0.692 | 0.652
8 | COc1cccc(OCCCN)c1-c1cc(Nc2cnc(C#N)cn2)n[nH]1 [Prexasertib] + CCc1c2c(nc3ccc(O)cc13)-c1cc3c(c(=O)n1C2)COC(=O)[C@]3(O)CC [SN-38] (first compound max 1 µM, 7x7, partner max 0.3 µM) | 0.924 | 0.982 | 0.894 | 0.983 | 0.936 | 0.906 | 1 | 0.798 | 0.928 | 1 | 0.944 | 0.889 | 0.999 | 0.978 | 0.4 | 0.703 | 0.713 | 1 | 0.841 | 0.852
9 | COc1cccc(OCCCN)c1-c1cc(Nc2cnc(C#N)cn2)n[nH]1 [Prexasertib] + CN(C)CCCOc1ccc(-c2ccc3ncc4c(c3c2)n(C2CCOCC2)c(=O)n4C)cn1 [AZD0156] (first compound max 1 µM, 7x7, partner max 1 µM) | 0.82 | 0.986 | 0.407 | 0.771 | 0.858 | 0.525 | 0.976 | 0.823 | 0.889 | 1 | 0.933 | 0.896 | 0.988 | 0.743 | 0.29 | 0.728 | 0.682 | 0.838 | 0.618 | 0.683
10 | COc1cccc(OCCCN)c1-c1cc(Nc2cnc(C#N)cn2)n[nH]1 [Prexasertib] + C[C@@H]1COCCN1C2=NC(=NC(=C2)C3(CC3)[S@](=N)(=O)C)C4=C5C=CNC5=NC=C4 [AZD6738] (first compound max 1 µM, 7x7, partner max 10 µM) | 0.852 | 0.994 | 0.522 | 0.748 | 0.857 | 0.604 | 0.971 | 0.767 | 0.894 | 1 | 0.92 | 0.856 | 0.948 | 0.705 | 0.192 | 0.65 | 0.747 | 0.855 | 0.643 | 0.685
11 | COc1cccc(OCCCN)c1-c1cc(Nc2cnc(C#N)cn2)n[nH]1 [Prexasertib] + Cc1cc2ncnn2cc1Nc1ncc2c(n1)n(C1CCOCC1)c(=O)n2C [AZD7648] (first compound max 1 µM, 7x7, partner max 10 µM) | 0.768 | 0.99 | 0.377 | 0.766 | 0.861 | 0.586 | 0.958 | 0.804 | 0.886 | 1 | 0.924 | 0.817 | 0.966 | 0.696 | 0.253 | 0.713 | 0.739 | 0.876 | 0.692 | 0.711
12 | COc1cccc(OCCCN)c1-c1cc(Nc2cnc(C#N)cn2)n[nH]1 [Prexasertib] + O=C(c1cc(Cc2n[nH]c(=O)c3ccccc23)ccc1F)N1CCN(C(=O)C2CC2)CC1 [Olaparib] (first compound max 1 µM, 7x7, partner max 10 µM) | 0.688 | 1 | 0.462 | 0.687 | 0.84 | 0.565 | 0.967 | 0.765 | 0.776 | 1 | 0.877 | 0.802 | 0.821 | 0.639 | 0.283 | 0.749 | 0.682 | 0.976 | 0.671 | 0.657
13 | COc1cc2c(cc1OCCCCCOc1cc3c(cc1OC)C(=O)N1C=C(C)C[C@H]1C=N3)N=C[C@@H]1CC(C)=CN1C2=O [SG3199] + O=C(c1cc(Cc2n[nH]c(=O)c3ccccc23)ccc1F)N1CCN(C(=O)C2CC2)CC1 [Olaparib] (first compound max 0.001 µM, 7x7, partner max 10 µM) | 0.25 | 0.292 | 0.187 | 0.347 | 0.0781 | 0.268 | 0.264 | 0.356 | 0.147 | 0.189 | 0.264 | 0.139 | 0.127 | 0.178 | 0.0848 | 0.179 | 0.187 | 0.832 | 0.175 | 0.221
